Laboratory results published in ChEMBL document CHEMBL1159015, “Isolation of the bioactive terpene 7-deacetoxy-olepupuane from the temperate marine sponge Dysidea sp” (J Nat Prod, 1992).
Converted amounts (≈) assume the structure as drawn.

Test system: P388
Test: Cytotoxicity against mouse P388 cells
Type: functional, cell-based

SMILES: CC(=O)O[C@@H]1OC=C2CC[C@H]3C(C)(C)CCC[C@]3(C)[C@H]21
- IC50: 16.4 µg/mL (≈ 58.9 µM)
